Measurements: patent publication US20230114728A1 (Venatorx Pharmaceuticals, Inc., priority 2019, published 2023)
Values after ≈ are worked out from the molar mass of the structure shown. Where two headings read alike, the source gives them in different places.

Columns and labels:
E. coli K12 PBP3 = target: T1, E. coli K12 PBP3 (Escherichia coli, UniProt P0AD68); assay: biochemical; type: binding
T1 construct: made in house
Excerpt: (§1) Example I: Experimental Method for Penicillin-Binding Protein Binding Assays with Bocillin-FL Via Fluorescence Polarization
(§2) To determine the ability of boronic acid-based test PBP inhibitors to bind Penicillin Binding Proteins (PBPs), Bocillin-FL (fluorescently-labeled penicillin V; ThermoFisher Scientific) was used in a fluorescence polarization (FP) competition binding assay to assess inhibitor binding to PBP2, PBP3 or PBP4 from Escherichia coli (K12), PBP3 from Pseudomonas aeruginosa (PA01), PBP1a, PBP2 and PBP3 from Acinetobacter baumannii (ATCC 19606), and PBP2 from Neiserria gonorrheae (FA19). PBPs were cloned and purified as described previously (E. coli PBPs, King, D. T, et al., ACS Infectious Diseases 2015, 1, 175-184; P. aeruginosa PBP3, Han et. al., PNAS 2010, 107 (51), 22002-22007; A. baumannii PBPs, Penwell et. al., Antimicrob. Agents Chemother. 2015, 59 (3), 1680-1689; N. gonorrhoeae PBP2, Singh et. al., J Biol. Chem. 2019, 294 (38), 14020-14032). To establish assay conditions for competition binding, enzyme titration/saturation binding experiments were initially performed. Bocillin-FL was prepared at 0.2 μM in a buffer comprised of 50 mM Hepes (pH 8.0), 300 mM NaCl and 5% (v/v) glycerol for reactions with E. coli, P. aeruginosa and N. gonorrhoeae PBPs, and 25 mM Tris (pH 8.0), 200 mM NaCl and 10% (v/v) glycerol and 0.005% (v/v) Tween 20 for reactions with A. baumannii PBPs. Saturation binding was performed by mixing 40 μl of PBP solutions ranging in concentrations from 0-24 μM with 40 μl of the 0.2 μM Bocillin-FL solution, in individual wells of a black 384-well microplate. FP was measured immediately upon mixing (Excitation, 490 nm; Emission, 520 nm; g-factor, 0.96), using a Cytation3 (BioTek) microplate reader and measured continuously for up to 120 minutes. […] The competition binding assay (80 μl final volume) was validated using beta-lactams and PBPs at final concentrations of: 1.5 μM, E. coli PBP3; 0.75 μM, P. aeruginosa PBP3; 1 μM A. baumannii PBP1a; 2.5 μM A. baumannii PBP2; 0.2 μM A. baumannii PBP3; and […] N. gonorrhoeae PBP2. Bocillin-FL was at 0.1 μM (0.05 μM with A. baumannii PBP1a) and beta-lactam concentrations ranged from 0-1000 μM. […] Bocillin-FL was added and the FP immediately measured for up to 60 minutes (90 minutes for E. coli PBP2). […] The beta-lactam potency was reported as the concentration of beta-lactam required to reduce the amount of PBP bound-Bocillin-FL by 50% (EC50). […] Binding assays for boronic acid PBP inhibitors were performed in an identical fashion for the respective PBPs

P. aeruginosa PBP3 = target: T2, P. aeruginosa PBP3 (Pseudomonas aeruginosa, UniProt G3XD46); assay: Bocillin-FL fluorescence polarization competition binding assay, P. aeruginosa PBP3; conditions: fluorescence polarization competition binding assay using Bocillin-FL
T2 construct: made in house
T2 sequence (G3XD46 whole entry): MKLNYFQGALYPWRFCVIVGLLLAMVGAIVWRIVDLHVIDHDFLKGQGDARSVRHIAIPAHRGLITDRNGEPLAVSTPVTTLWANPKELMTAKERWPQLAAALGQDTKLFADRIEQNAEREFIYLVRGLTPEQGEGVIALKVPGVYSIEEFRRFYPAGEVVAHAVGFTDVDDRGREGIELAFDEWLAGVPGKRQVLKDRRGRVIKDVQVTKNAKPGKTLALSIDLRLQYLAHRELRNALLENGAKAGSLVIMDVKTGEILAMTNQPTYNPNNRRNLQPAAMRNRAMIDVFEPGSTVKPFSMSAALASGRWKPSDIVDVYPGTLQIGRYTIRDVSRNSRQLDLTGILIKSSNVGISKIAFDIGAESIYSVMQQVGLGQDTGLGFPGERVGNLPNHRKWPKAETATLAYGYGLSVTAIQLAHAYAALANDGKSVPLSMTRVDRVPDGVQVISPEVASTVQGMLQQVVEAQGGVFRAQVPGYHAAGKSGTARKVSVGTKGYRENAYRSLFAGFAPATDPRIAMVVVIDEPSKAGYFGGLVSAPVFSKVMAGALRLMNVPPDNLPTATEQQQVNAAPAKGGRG
Excerpt: as §1, §2

A. baumannii ATCC 19606 = assay: Broth microdilution MIC in CAMHB; type: cell-based; conditions: Acinetobacter baumannii, ATCC19606; MHB; read-out: Minimum Inhibitory Concentration, A. baumannii ATCC 19606
Description: (§3) Example III: In Vitro Antibacterial Assays
(§4) To determine the ability of test compounds to inhibit the growth of bacterial strains, classic cell based broth microdilution minimum inhibitory concentration (MIC) assays were employed. MIC assays are performed according to CLSI methods except where otherwise noted (CLSI, 2018 and CLSI, 2019). The reference type strain E. coli ATCC 25922; the wild-type parent strain E. coli AG100; the hyper-permeable E. coli 901C and E. coli D22; and the E. coli AG100A strain lacking the acrAB efflux pump encoding genes were used to determine the ability of the PBP inhibitors to penetrate the outer membrane of gram-negative bacteria and inhibit bacterial growth. […] The P. aeruginosa ATCC 27853 and A. baumannii ATCC 19606, along with the hyper-permeable P. aeruginosa ATCC 35151 and an engineered efflux pump-compromised strain of P. aeruginosa (ΔmexAB-oprM) were used to determine the ability of PBP inhibitors to penetrate the outer membrane of P. aeruginosa and A. baumannii and assess antibacterial activity against these important gram-negative organisms.
(§5) Briefly, cryo-preserved bacterial cultures of challenge strains are streaked for isolation on appropriate agar medium, in this case cation-adjusted Mueller Hinton agar. Following incubation to allow growth of the colonies, plates are sealed with parafilm and stored refrigerated for up to two weeks. For preparation of assay inoculum and to ensure low variability, at least 5 colonies are picked from the agar plates with an inoculating loop and aseptically transferred to a culture tube containing 3 mL of cation-adjusted Mueller Hinton broth (CAMHB). The broth culture is grown for 3-5 hours at 37° C. with shaking at 200 rpm. Meanwhile, 2-fold serial dilutions of test compounds are conducted in a 96-well plate with a final volume of 75 μL per well at 2-fold the final desired concentration. After the dilution plates are set up the growing cultures are then diluted in a cuvette containing CAMHB and the optical density is measured at 600 nm. The inoculum is diluted such that 75 μL of this culture in CAMHB results in a starting bacterial concentration of 2-8×10^5 CFU/mL when added to the dilution plates. The plates are incubated for 16-20 hours for Enterobacteriaceae and Pseudomonas and 20-24 hours for Acinetobacter at 37° C. The MIC values are read visually as the lowest concentration well with no bacterial growth.

E. coli 901C = assay: Broth microdilution MIC in CAMHB; type: cell-based; conditions: Escherichia coli, MHB, read-out: Minimum Inhibitory Concentration, E. coli 901C
Description: as §3, §4, §5

E. coli AG100A = assay: Broth microdilution MIC in CAMHB; type: cell-based; conditions: Escherichia coli, read-out: Minimum Inhibitory Concentration, E. coli AG100A
Description: as §3, §4, §5

E. coli AG100 = assay: Broth microdilution MIC in CAMHB; type: cell-based; conditions: Escherichia coli, MHB, read-out: Minimum Inhibitory Concentration, E. coli AG100
Description: as §3, §4, §5

E. coli ATCC 25922 = assay: Broth microdilution MIC in CAMHB; type: cell-based
Description: as §3, §4, §5

E. coli D22 = assay: Broth microdilution MIC in CAMHB; type: cell-based; conditions: Escherichia coli, MHB, read-out: Minimum Inhibitory Concentration, E. coli D22
Description: as §3, §4, §5

[1] = system: K. pneumoniae 848844 producing SHV-11 and KPC-2; assay: Broth microdilution MIC in CAMHB; type: cell-based; conditions: Klebsiella pneumoniae, read-out: Minimum Inhibitory Concentration, K. pneumoniae 848844
Description: as §3, §4, §5

[2] = system: K. pneumoniae SI-117 producing VIM-1; assay: Broth microdilution MIC in CAMHB; type: cell-based; conditions: Klebsiella pneumoniae, read-out: Minimum Inhibitory Concentration, K. pneumoniae SI-117
Description: as §3, §4, §5

[3] = system: K. pneumoniae UMM producing SHV-5 and KPC-2; assay: Broth microdilution MIC in CAMHB; type: cell-based; conditions: Klebsiella pneumoniae, read-out: Minimum Inhibitory Concentration, K. pneumoniae UMM
Description: as §3, §4, §5

[4] = system: P. aeruginosa (ΔmexAB-oprM); assay: Broth microdilution MIC in CAMHB; type: cell-based; conditions: Pseudomonas aeruginosa, read-out: Minimum Inhibitory Concentration, P. aeruginosa ΔmexAB-OprM
Description: as §3, §4, §5

P. aeruginosa ATCC 27853 = assay: Broth microdilution MIC in CAMHB; type: cell-based; conditions: Pseudomonas aeruginosa, ATCC27853; MHB; read-out: Minimum Inhibitory Concentration, P. aeruginosa ATCC 27853
Description: as §3, §4, §5

P. aeruginosa ATCC 35151 = assay: Broth microdilution MIC in CAMHB; type: cell-based; conditions: Pseudomonas aeruginosa, ATCC35151; MHB; hyper-permeable strain; read-out: Minimum Inhibitory Concentration, P. aeruginosa ATCC 35151
Description: as §3, §4, §5

[5] = E. coli AG100 (wild-type parent)
[6] = Escherichia coli, ATCC25922; E. coli ATCC 25922; MHB; read-out: Minimum Inhibitory Concentration, E. coli 25922
[7] = wild-type parent strain E. coli AG100
[8] = Escherichia coli, ATCC25922; MHB; E. coli ATCC 25922; read-out: Minimum Inhibitory Concentration, E. coli 25922

T1 sequence (P0AD68 1-577): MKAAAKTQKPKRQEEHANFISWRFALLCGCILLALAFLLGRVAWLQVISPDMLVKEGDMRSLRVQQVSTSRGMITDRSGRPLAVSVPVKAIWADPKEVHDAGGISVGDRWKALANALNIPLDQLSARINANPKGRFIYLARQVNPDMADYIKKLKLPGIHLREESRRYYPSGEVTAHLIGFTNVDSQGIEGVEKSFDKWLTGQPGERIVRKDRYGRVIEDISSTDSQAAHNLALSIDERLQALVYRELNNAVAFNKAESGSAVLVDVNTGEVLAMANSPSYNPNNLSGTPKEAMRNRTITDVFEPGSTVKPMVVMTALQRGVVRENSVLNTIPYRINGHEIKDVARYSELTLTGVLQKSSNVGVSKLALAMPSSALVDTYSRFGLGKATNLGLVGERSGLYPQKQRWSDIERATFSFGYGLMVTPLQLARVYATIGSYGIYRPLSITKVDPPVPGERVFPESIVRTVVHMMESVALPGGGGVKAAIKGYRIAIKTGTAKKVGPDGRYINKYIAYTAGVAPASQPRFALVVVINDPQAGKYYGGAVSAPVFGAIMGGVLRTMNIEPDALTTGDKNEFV

SMILES	EC50 (E. coli K12 PBP3) [µM]	P. aeruginosa PBP3 Potency (P. aeruginosa PBP3)	MIC (A. baumannii ATCC 19606) [µg/mL]	MIC (E. coli 901C; E. coli 901C (hyper-permeable)) [µg/mL]	MIC (E. coli AG100A) [µg/mL]	MIC (E. coli AG100; [5]) [µg/mL]	MIC (E. coli ATCC 25922; [6]) [µg/mL]	MIC (E. coli D22; E. coli D22 (hyper-permeable)) [µg/mL]	MIC [1] [µg/mL]	MIC [2] [µg/mL]	MIC [3] [µg/mL]	MIC [4] [µg/mL]	MIC (P. aeruginosa ATCC 27853) [µg/mL]	MIC (P. aeruginosa ATCC 35151) [µg/mL]	MIC (E. coli 901C; hyper-permeable E. coli 901C) [µg/mL]	MIC (E. coli AG100; [7]) [µg/mL]	MIC (E. coli ATCC 25922; [8]) [µg/mL]	MIC (E. coli D22; hyper-permeable E. coli D22) [µg/mL]
NS(=O)(=O)Nc1ccc(F)c([C@H](NC(=O)N2CCN(CC(F)(F)F)C(=O)C2=O)C(=O)N[C@H]2Cc3cccc(C(=O)O)c3OB2O)c1 (single isomer, unassigned) [Example 218]	30 to 500	C (C represents a potency between 10 and 30 μM)	> 128	0.5 to 1 (≈ 0.741 to 1.48 µM)	32 to 64 (≈ 47.5 to 94.9 µM)	> 128	> 128	8 to 16 (≈ 11.9 to 23.7 µM)	> 128	> 128	> 128	32 to 64 (≈ 47.5 to 94.9 µM)	> 128	8 to 16 (≈ 11.9 to 23.7 µM)	–	–	–	–
NS(=O)(=O)Nc1ccc(F)c([C@@H](NC(=O)N2CCN(CC(F)(F)F)C(=O)C2=O)C(=O)N[C@H]2Cc3cccc(C(=O)O)c3OB2O)c1 (single isomer, unassigned) [Example 219]	< 30	D (D represents a potency <10 μM)	> 128	0.5 to 1 (≈ 0.741 to 1.48 µM)	2 to 4 (≈ 2.97 to 5.93 µM)	32 to 64 (≈ 47.5 to 94.9 µM)	32 to 64 (≈ 47.5 to 94.9 µM)	2 to 4 (≈ 2.97 to 5.93 µM)	> 128	32 to 64 (≈ 47.5 to 94.9 µM)	32 to 64 (≈ 47.5 to 94.9 µM)	8 to 16 (≈ 11.9 to 23.7 µM)	> 128	2 to 4 (≈ 2.97 to 5.93 µM)	–	–	–	–
CCN1C[C@H](C)N(C(=O)N[C@@H](C(=O)N[C@H]2Cc3cccc(C(=O)O)c3OB2O)c2ccc(O)c(F)c2F)C(=O)C1=O [Example 240, (3R)-3-(2-(2,3-difluoro-4-hydroxyphenyl)-2-((S)-4-ethyl-6-methyl-2,3-dioxopiperazine-1-carboxamido)acetamido)-2-hydroxy-3,4-dihydro-2H-benzo[e][1,2]oxaborinine-8-carboxylic acid]	–	D (D represents a potency <10 μM)	> 128	–	32 to 64 (≈ 55.7 to 111 µM)	–	–	–	32 to 64 (≈ 55.7 to 111 µM)	2 to 4 (≈ 3.48 to 6.96 µM)	< 0.25	8 to 16 (≈ 13.9 to 27.9 µM)	> 128	2 to 4 (≈ 3.48 to 6.96 µM)	> 128	> 128	32 to 64 (≈ 55.7 to 111 µM)	32 to 64 (≈ 55.7 to 111 µM)
C[C@H]1CN(CCCN)C(=O)C(=O)N1C(=O)NC(C(=O)N[C@H]1Cc2cccc(C(=O)O)c2OB1O)c1ccc(O)c(F)c1F (stereo partly drawn) [Example 243, (3R)-3-(2-((S)-4-(3-aminopropyl)-6-methyl-2,3-dioxopiperazine-1-carboxamido)-2-(2,3-difluoro-4-hydroxyphenyl)acetamido)-2-hydroxy-3,4-dihydro-2H-benzo[e][1,2]oxaborinine-8-carboxylic acid]	–	D (D represents a potency <10 μM)	> 128	–	32 to 64 (≈ 53 to 106 µM)	–	–	–	32 to 64 (≈ 53 to 106 µM)	2 to 4 (≈ 3.31 to 6.63 µM)	0.5 to 1 (≈ 0.829 to 1.66 µM)	8 to 16 (≈ 13.3 to 26.5 µM)	> 128	2 to 4 (≈ 3.31 to 6.63 µM)	> 128	32 to 64 (≈ 53 to 106 µM)	32 to 64 (≈ 53 to 106 µM)	32 to 64 (≈ 53 to 106 µM)
